Experimental data: patent US20220333078A1, “Method for ex vivo expansion CD34+HSPCs into NK cells using an aryl hydrocarbon receptor antagonist” (Stichting Radboud universitair medisch centrum, priority 2015, published 2022)

What was measured:
HSPC-NK cells = assay: Proliferation (CFSE dilution) and viability of HSPC-NK cells cultured 7 days with MPA or CsA; type: cell-based, human
Description: HSPC-NK cells were cultured according to our culture protocol for 35 days. After 35 days, NK cells were labeled with 1 μM CFSE as described previously. After staining, cells were resuspended in differentiation medium at a concentration of 2E+6/mL and plated in duplicate in a 96-well plate. […] After 7 days, cells were harvested. The number of viable target cells was quantified by FCM by gating on forward scatter and side scatter and exclusion of 7-AAD positive cells. Proliferation was analyzed by determining the CFSE dilution within CD56+ cells.

K562 cells = assay: K562 killing and IFN-γ production by NK cells cultured in the presence of MPA or CsA; type: cell-based, human
Description: Cell lines were labeled with 1 μM carboxyfluorescein diacetate succinimidyl ester (CFSE; Molecular Probes Invitrogen, Eugene, Oreg., USA) and primary AML blasts were labeled with 1.5 μM CFSE, both in a concentration of 1E+7/mL for 10 minutes at 37° C. The reaction was terminated by adding an equal volume of FCS. After washing, cells were resuspended in IMDM/10% FCS to a final concentration of 3E+5/mL. Target cells (3E+4) were co-cultured in triplicate with effector cells at different effector:target (E:T) ratios in a total volume of 200 μL IMDM/10% FCS in 96-wells round-bottom plates (Corning Incorporated). Effector cells and target cells alone were plated out in triplicate as controls. […] Cells were harvested and the number of viable target cells was quantified by FCM by gating on forward scatter and side scatter and exclusion of 7-AAD positive cells. Target cell survival was calculated as follows: % survival=([absolute number of viable CFSE+ target cells co-cultured with NK cells]/[absolute number of viable CFSE+ target cells cultured in medium])×100%. The percentage specific lysis was calculated as follows: % lysis=(100−[% survival]), as described earlier by Jedema et al. Degranulation of NK cells during overnight co-culture was determined as the percentage of CD107a expressing cells measured by FCM. […]

[1] = system: G-CSF mobilized CD34+HSPCs; assay: Ex vivo cytokine-based expansion and NK cell differentiation of G-CSF mobilized peripheral blood CD34+HSPCs with or without 2 μM SR1; set-up: species or system human
Description: (§1) Bone marrow samples were collected from healthy donors after written informed consent. Bone marrow-derived mononuclear cells (BM-MNCs) were isolated by Ficoll-hypaque (1.077 g/mL; GE Healthcare, Uppsala, Sweden) density gradient centrifugation. Peripheral blood-derived mononuclear cells (PB-MNCs) were obtained from aphaeresis material from stem cell donors who were treated with G-CSF (Neupogen®) 10 μg/kg/day subcutaneously for 5 to 6 days, after written informed consent. CD34+HSPCs were isolated using anti-CD34 immunomagnetic beads (Miltenyi Biotech, Bergisch Gladbach, Germany) according to manufacturer's instructions. CD34+HSPCs were directly used for NK cell generation.
CD34+HSPCs were plated into 24-well or 6-well tissue culture plates (Corning Incorporated, Corning, N.Y., USA). Cells were expanded during 9 or 10 days with a high-dose cytokine cocktail (Expansion cocktail I) consisting of 25 ng/mL IL-7 (Immunotools), 25 ng/mL SCF (Immunotools), 25 ng/mL TPO (Cellgenix) and 25 ng/mL Flt3L (Immunotools). From day 9 or 10 until day 14 or 15, TPO was replaced by 20 ng/mL IL-15 (Miltenyi). After day 14 or 15, cell differentiation was initiated by replacing Expansion cocktail I by a new high-dose cytokine cocktail (Differentiation cocktail) consisting of 20 ng/mL IL-7, 20 ng/mL SCF, 20 ng/mL IL-15 and 1000 U/mL IL-2 (Proleukin®; Chiron, München, Germany). Where mentioned, 2 μM StemRegenin1 (SR1; Cellagen Technology, San Diego, Calif., USA) was added to the culture medium (see FIG. 1A). Cells were cultured in Cellgro GMP DC medium (Cellgenix, Freiburg, Germany) supplemented with 10% human serum (HS; Sanquin Bloodbank, Nijmegen, The Netherlands) and a low dose cytokine cocktail consisting of […] G-CSF (Filgrastim, “Neupogen”—Amgen Corp. USA), 10 μg/mL GM-CSF and 50 μg/mL IL-6 (both Immunotools, Friesoythe, Germany). During the first 14 or 15 days of culture, low molecular weight heparin (Clivarin®; Abbott, Wiesbaden, Germany) was added to the medium in a final concentration of 20 μg/mL. Freshly isolated CD34+ cells were plated at a concentration of 1-4E+5/mL. After 3 days of culture, cells were transferred to a new plate in order to deplete for stromal cells. From day 14 or 15 onward, cell counts were kept above 2E+6 cells/mL. Cell cultures were refreshed with at least 30% new medium every 2 to 3 days. Cultures were maintained at 37° C., in 95% humidity, and 5% CO2. NK cells were used in experiments after 5 weeks of culture.
(§2) Cell numbers and expression of cell-surface markers were determined by FCM. Anti-human CD45-ECD (J.33, Beckman Coulter, Woerden, The Netherlands) and anti-CD56-PC7 (HCD56, Biolegend, San Diego, Calif., USA) antibodies were used to follow cell number and NK cell differentiation during culture using the Coulter FC500 flow cytometer (Beckman Coulter). The population of viable CD45+ cells was determined by exclusion of 7-AAD (Sigma, St Louis, Mo., USA) positive cells. For phenotypical analysis, cells were incubated with antibodies in FCM buffer (PBS/0.5% bovine serum albumin (BSA; Sigma) for 30 minutes at 4° C. After washing, cells were resuspended in FCM buffer and analyzed. The following conjugated monoclonal antibodies were used for NK cell phenotyping: anti-NKG2A-PE (Z199; Beckman Coulter), anti-DNAM-1-FITC (DX 11; BD Biosciences Pharmingen, Breda, The Netherlands), anti-CD16-FITC (3G8), anti-CD3-FITC (UCHT1), anti-NKG2D-PE (1D11), anti-NKp30-PE (P30-15), anti-NKp44-PE (P44-8), anti-NKp46-PD (9E5), anti-CD158b-PE (Dx27), anti-CD158e-PE (Dx9), anti-CD158a/h-PE (HP-MA4), anti-CD62L-PE (DREG56), anti-CD253-PE (RIK-2), anti-CXCR3-PE (G025H7), anti-CXCR4-PE (12G5), anti-IgG1-PE (MOPC-21), anti-IgG2a-PE (MOPC-173), anti-IgG2b-PE (MCP-11), anti-IgG1-FITC (MOPC-21; all from Biolegend).

BM-derived CD34+HSPCs = assay: Ex vivo cytokine-based expansion and NK cell differentiation of bone marrow-derived CD34+HSPCs with or without 2 μM SR1; set-up: species or system human
Description: as §1
CD34+HSPCs were plated into 24-well or 6-well tissue culture plates (Corning Incorporated, Corning, N.Y., USA). Cells were expanded during 9 or 10 days with a high-dose cytokine cocktail (Expansion cocktail I) consisting of 25 ng/mL IL-7 (Immunotools), 25 ng/mL SCF (Immunotools), 25 ng/mL TPO (Cellgenix) and 25 ng/mL Flt3L (Immunotools). […]
as §2, with “Anti-human CD45-ECD (J.33, Beckman Coulter, Woerden, The Netherlands) and anti-CD56-PC7 (HCD56, Biolegend, San Diego, Calif., USA) antibodies were used to follow cell number and NK cell differentiation during culture using the Coulter FC500 flow cytometer (Beckman Coulter).” left out

AhR = assay: qRT-PCR of AhRR and NK cell transcription factors in HSPC-NK cultures with or without SR1; type: cell-based, human
Description: Total RNA from 0.5-2E+5 cells, collected weekly from HSPC-NK cell cultures, was isolated using the Quick-RNA™ MicroPrep Kit (Zymo Research, CA, USA). Next, cDNA was synthesized using M-MLV-reverse transcriptase (Invitrogen) in a standard reaction as described before, after which real-time PCR was performed using the following Taqman Gene expression assays (Applied Biosystems, Forster City, Calif., USA): AhRR (Hs01005075_m1); TOX (Hs01055573_m1); ID2 (Hs04187239_m1); EOMES (Hs00172872_m1); GATA3 (Hs00231122_m1); SH2D1B (Hs01592483_m1); IFNG (Hs00989291_m1); GZMB (Hs01554355_m1); PRF1 (Hs99999108_m1). For all genes, Ct values were normalized to GAPDH (Hs02758991_g1) by calculating ΔCt=Cttarget gene−CtGAPDH per sample. Finally, gene expression levels were quantified relative to GAPDH as follows: 2^(−[ΔCt]).
After 5 weeks of culture, CD56+ cells were isolated from the total cultured cells. For this purpose cells were stained for 15 minutes at 4° C. using the appropriate concentration of anti-CD56-PEcy7 (CD56-PC7 (HCD56, Biolegend). Cells were washed and resuspended in FACS buffer at a concentration of 1.5E+6/mL, and subsequently sorted at the FACSAria Cell Sorter (BD Biosciences).

CD56+NK cells = assay: FCM phenotype of CD56+NK cells after 35 days of culture; type: cell-based, human; settings: generated in the presence vs absence of SR1
Description: as §2

[2] = system: CD34+ cells enriched from UCB, BM and mobilized blood; assay: SR1-based culture without heparin and low dose cytokines (UCB, BM and mobilized blood CD34+ cells); type: cell-based, human
From the text: Representation of the new ex vivo SR1-based culture protocol used for the generation of NK cells. In the expansion step, CD34+ cells are expanded and differentiated into NK progenitors using SCF, Flt3L, IL-7, TPO and an aryl hydrocarbon antagonist, preferably SR1. Thereafter, NK progenitors are further differentiated using IL-15, IL-12 and/or IL-2.
In earlier studies, we exploited a phased based addition of cytokines in heparin-based basal media (5-7). Heparin is able to bind certain cytokines, reducing their degradation and perhaps presenting them in a more physiological manner. Furthermore, low dose cytokine cocktail containing G-CSF, GM-CSF and IL-6 was being used, which was based on studies using the fetal liver-derived stromal cell line AFT024 [59]. Since we observed that the AhR antagonist is a crucial component for the ex vivo expansion of NK cells from BM and mobilized blood CD34+HSPCs, we investigated whether we could simplify the culture method by leaving out heparine and low dose cytokines G-CSF, GM-SCF and IL-6 that have mainly an effect on myeloid progenitor cells (see FIG. 7).

CD34+UCB cells = settings: after 25 days of culture with IL-1β; cited from earlier work
[3] = FACS-sorted CD56+NK cells after 5 weeks, SR1 vs no SR1

COc1c(C)c2c(c(O)c1C/C=C(\C)CCC(=O)O)C(=O)OC2 [MPA, mycophenolic acid]
proliferation of HSPC-NK cells (HSPC-NK cells; MPA 0.1 μg/ml): already inhibited | NK cell viability (HSPC-NK cells; MPA 0.1 to 10 μg/mL or CsA 0.01 to 1 μg/mL): induced dose-dependent cell death | NK cell-mediated killing of K562 cells (K562 cells; NK cells cultured with drug, overnight, E:T 1:1): impaired killing | IFN-γ production (K562 cells; NK cells incubated with drug, overnight co-culture with K562, E:T 1:1): impaired IFN-γ production

CC(C)n1cnc2c(NCCc3ccc(O)cc3)nc(-c3csc4ccccc34)nc21 [SR1, StemRegenin 1]
Mean NK cell yield after 5 weeks of culture ([1]; G-CSF mobilized CD34+ cells, 2 μM SR1, range 115-904 fold, n=10): 235 fold | purity (NK cell differentiation, CD56+) ([1]; G-CSF mobilized CD34+HSPCs, with SR1, 5 weeks): 83%±9% | expansion of CD34+ cells ([1]; PB-derived HSPCs, addition of 2 μM SR1 vs no SR1): strongly enhanced expansion of CD34+ cells | amount of CD3+ T cells ([1]; SR1-based NK cell cultures): 0.1%±0.1% | average expansion of G-CSF-mobilized CD34+ cells ([1]; SR1-based protocol): 268 fold | frequency of CD34+ cells at the end of the culture process ([1]; SR1 cultures): 0.7%±0.4% | remaining non-NK cells: CD14+ and/or CD15+ mature monocytic and myelocytic cells ([1]; SR1 cultures, end of culture): 11%±6% | purity (NK cell differentiation, CD56+) (BM-derived CD34+HSPCs; BM-derived CD34+ cells, with SR1, 5 weeks): 84%±18% | Mean NK cell yield after 5 weeks of culture (BM-derived CD34+HSPCs; BM-derived CD34+HSPCs, 2 μM SR1, range 33-301, n=4): 129 fold | expansion of CD34+ cells (BM-derived CD34+HSPCs; BM-derived HSPCs, addition of 2 μM SR1 vs no SR1): strongly enhanced expansion of CD34+ cells | IFN-γ mRNA expression (AhR; FACS-sorted CD56+NK cells after 5 weeks, not exposed to target cells, SR1 vs no SR1): not increased | GATA-3 and EAT-2 expression (AhR; [3]): similar | GZMB and PERF expression (AhR; [3]): slightly higher, but not significantly increased | TOX, ID2 and EOMES expression (AhR; [3]): did not observe increased expression | AhRR expression relative to GAPDH (AhR; total cells, 2 μM SR1 vs no SR1): efficient down regulation | EOMES expression relative to GAPDH (AhR; total cells, SR1 vs no SR1): upregulated from week three onward | GATA-3 and EAT-2 (SH2D1B) expression relative to GAPDH (AhR; total cells, SR1 vs no SR1): increased in cells cultured in the presence of SR1 | ID2 expression relative to GAPDH (AhR; total cells, SR1 vs no SR1): increased from day 14 onwards | TOX expression relative to GAPDH (AhR; total cells, from day 7 onward, SR1 vs no SR1): higher expression | presence of CD62L, CXCR3, DNAM-1 and TRAIL on CD56+ cells (CD56+NK cells): significantly higher | expansion of CD56+NK cells from CD34+ cells ([2]; 2 μM SR1 for 21 days, no heparin, G-CSF, GM-CSF, IL-6): promotes the expansion of CD56+NK cells | remaining non-NK cells, mainly CD14+ monocytic cells ([2]; SR1-based cultures without heparin and low dose cytokines): < 20%

IL-1β: cytokine added at the beginning of CD34+UCB culture in the protocol of Ambrosini et al.
overall percentage of CD56+NK cells expressing CD161, LFA1, NKG2A, NKp46, EOMES and perforin (CD34+UCB cells): < 20%
